Measured values published in US20110195910A1, “USE OF TOCOTRIENOL COMPOSITION FOR THE PREVENTION OF CANCER” (DAVOS LIFE SCIENCE PTE. LTD., priority 2008, published 2011).

How the values were obtained:
[1] = Single acute toxicity test (MTD); format: in vivo, C57BL/6 black mice; conditions: single dose i.p., 30-day observation
Experimental: 4.1.5 Single Acute Toxicity Test—The maximum tolerated dose (MTD) was determined by increasing doses on different groups of mice until the highest dose without any mortality is found. Briefly, ninety C57BU6 black mice (ten for each group) received single dose i.p injection containing 1, 2, 4, 8, 12, 16, 20, 30 and 40 mg of γ-T3 in 100 μl injection volume.

DU145 cells [2] = assay: Spheroid formation assay, DU145 cells; format: cell-based
Experimental: 5.1.7 Spheroid formation assay—Spheroid formation assay was performed with a protocol modified from previous study (Folkins C, p3560). Briefly, cells were first trypsinized, washed with 1× PBS and resuspended in DMEM F12 medium. Two hundred cells were added into each well of a 24-well-plate pre-coated with polyHEMA (Sigma, St. Louis, Mo.). Cells will be grown in DMEM/F12 mem (Invitrogen, Carlsbad, Calif.) supplemented with 4 μg/mL insulin (Sigma, St. Louis, Mo.), B27 (Invitrogen, Carlsbad, Calif.), 20 ng/mL EGF (Sigma, St. Louis, Mo.), and 20 ng/mL basic FGF (Invitrogen, Carlsbad, Calif.). Fresh medium with the above supplements was added every day. γ-T3 was added at indicated time points and the number of spheroids was counted at day 14 of the assay or at the end of the treatment. Each experiment was repeated in triplicates and each data point represented the mean and standard derivation.

C32 cells = assay: Flow cytometry and western blotting, C32 cells; format: cell-based
Experimental: 1.1.3 Flow cytometry—Cell cycle distribution was examined using flow cytometry. Briefly, cells were harvested by trypsinization, fixed in 70% ethanol at 4° C. overnight, and then resuspended in PBS. After incubation at 4° C. for overnight, 2×10^6 cells were incubated with in 20 μg/ml propidium iodide (PI) and 2 mg RNaseA for 15 minutes at 37° C. Cells were then examined by BD SLRII cytometer and the results were analyzed using ModFit software (Becton Dickinson, Mountain View, Calif.). Data were expressed as the percentage of cell cycle distribution in the entire population.
1.1.5 Western blotting—Detailed protocols have been described previously and are known in the art. Briefly, cell lysates were prepared by suspending cell pellets in lysis buffer [50 mmol/l Tris-HCl (pH 8.0), 150 mmol/l NaCl, 1% NP40, 0.5% deoxycholate, 0.1% SDS, 1 mg/ml aprotinin, 1 μg/ml leupeptin and 1 mmol/l phenylmethylsulfonyl fluoride]. For nuclear protein extraction, NucBuster™ protein extraction kit was used. Protein concentration was measured using the DC Protein Assay kit (Bio-Rad, Hercules, Calif.). Equal amount of protein (30 μg) was loaded onto a 10% SDS polyacrylamide gel for electrophoresis and then transferred onto a polyvinylidene difluoride membrane (Amersham, Piscataway, N.J.). The membrane was then incubated with primary antibodies for 1 hr at room temperature against E-cadherin (BD Biosciences, Bedford, Mass.), α-catenin, β-catenin, γ-catenin, Id-1, Id-3, EGFR, phosphor-c-jun, phosphor-ATF2, cleaved PARP, vimentin, α-smooth muscle actin, twist (Santa Cruz Biotechnology, Calif.), phosphor-IkB-alpha (Ser32/36), phosphor-IKK alpha (Seri 80)/IKK beta (Ser181), phosphor-SAPK/JNK (Thr183/Tyr185) G9, SAPK/JNK, NF-kB p65 (5A5) (Cell Signaling Technology Inc, Beverly, Mass.), Snail (Abcam). After incubation with appropriate secondary antibodies, signals were visualized by ECL western blotting system (Amersham, Piscataway, N.J.). Expression of β-actin and histone H1 were assessed as an internal loading control for total cell lysate and nuclear protein lysate respectively.

PC-3 cells [3] = assay: Low-dose viability (MTT) and apoptotic markers, PC-3 cells; format: cell-based; conditions: 2.5 and 5 μg/ml
Experimental: 5.1.4 Cell viability assay—Cell viability upon γ-T3 treatment was measured by 3-(4,5-Dimethyl thiazol-2-yl)-2,5-diphenyl tetrazolium bromide (MTT) assay. Briefly, cells were seeded on 96 well-plates and treated with different concentrations of γ-T3 for the indicated time point. At the end of the treatment, MTT (Sigma, St. Louis, Mo.) was added into each well and incubated for 4 hrs at RT. DMSO was then added into each well to dissolve the formazan crystals. The plate was allowed to incubate for a further 5 min at RT and the optical density (OD) was measured at a wavelength of 570 nm on a Labsystem multiskan microplate reader (Merck Eurolab, Dietikon, Schweiz). All individual wells were set in triplicates. The percentage of cell viability was presented as OD ratio between the treated and untreated cells at indicated concentrations.
(§1) 5.1.5 Western blotting was carried out as described above under 1.1.5. The membrane was incubated with primary antibodies directed against CD133 (Miltenyi Biotec, Auburn, Calif.), Bcl-2, PARP, cleaved caspase 3, 7, 9 (Cell Signaling, Technology Inc, Beverly, Mass.), CD44 and β-actin (Santa Cruz Biotechnology, Santa Cruz, Calif.). After washing with TBS-T, the membrane was incubated with secondary antibody against either mouse or rabbit IgG and the signals were visualized using ECL plus western blotting system (Amersham, Piscataway, N.J.).

MGH-U1 cells = assay: Western blotting of CD44, MGH-U1 cells; format: cell-based; conditions: bladder cancer cells
Experimental: as §1

PC-3 cells [4] = assay: Matrigel-invasion assay, PC-3 cells; format: cell-based, human; conditions: γ-T3 at IC50, 24 hrs
Experimental: 1.1.4 Matrigel-invasion assay—Matrigel-invasion assay was performed according to a previously published method with modifications. Briefly, cells were pre-incubated in a serum-free RPMI 1640 medium with or without γ-T3 isomers for 24 hrs. Cells (2.5×10^5) resuspended in 500 μl of serum-free RPMI 1640 containing 0.1% bovine serum albumin (BSA) were then added to the upper chamber of a 8 μm pore size insert (Millipore, Bedford, Mass.) manually coated with Matrigel (0.5 mg/ml) (BD Bioscience, Bedford, Mass.). Five hundred μl of invasion buffer containing fibronectin (10 μg/ml) and RPMI 1640 supplemented with 10% FCS were added in the lower chamber as a chemo-attractant. Cells were incubated at 37° C. for 24 hrs in 5% CO2 humidified conditions. At the end of incubation period, inserts were stained with Diff-Quick staining solution (Fischer Scientific). Non-invaded cells on the inside of the insert were scraped off with a cotton swab. Cell invasions were then examined by a phase-contrast microscope. The invaded cells were extracted using extraction buffer (Millipore, Bedford, Mass.) and the cell number was estimated based on absorbance at 595 nm.
2.1.4 Flow cytometry was carried out as described above under item 1.1.3. Matrigel-invasion assay was carried out as described above under item 1.1.4. Western blotting was carried out as described above under item 1.1.5.

DU145 cells [5] = assay: Western blotting of CD44, DU145 cells; format: cell-based; conditions: doses with minimum effect on viability
Experimental: as §1

SMILES: CC(C)=CCC/C(C)=C/CC/C(C)=C/CCC1(C)CCc2cc(O)c(C)c(C)c2O1 (centres unmarked) [γ-T3, 7,8-dimethyltocotrienol]
- maximum tolerated dose (MTD) [1]: 12 mg
- spheroid formation ability (DU145 cells [2]): almost completely suppressed
- JNK phosphorylation (C32 cells; C32): dosage-dependent increase in JNK phosphorylation activities
- NF-κB p65 activity (nuclear translocation) (C32 cells; C32): suppressed constitutive NF-κB p65 activity in a dose-dependent manner
- activation of pro-apoptotic proteins (cleaved products) (C32 cells; C32, different γ-T3 dosage, 24-hr): activation of procaspase 3, 7, 9 as well as PARP
- Id-1 and Id-3 expression levels (EGF-R similar) (C32 cells; C32, increasing dosages): significantly suppressed to almost undetectable level
- sub-G1 cell population (flow cytometry) (C32 cells; melanoma cells, γ-T3 at IC50, 24-hr): induction of sub-G1 cell population
- induction of apoptosis (viability assay and apoptotic markers) (PC-3 cells [3]): failed to detect a drastic induction of apoptosis
- CD44 expression (MGH-U1 cells): downregulate CD44 expression
- invasion capability compared to untreated control (PC-3 cells [4]): at least 2.5 -time lower
- CD44 expression (DU145 cells [5]): suppression of CD44 expression
